Results published in ChEMBL document CHEMBL1909046, “DrugMatrix in vitro pharmacology data”.

Assays:
[1] = target: 5-hydroxytryptamine receptor 2B (Homo sapiens, UniProt P41595); type: cell membranes, CHO-K1, Membrane; note: in other assays of this panel Not Active means under 50% inhibition at 10 µM
Androgen receptor = target: T1, Androgen receptor (Rattus norvegicus, UniProt P15207); note: in other assays of this panel Not Active means under 50% inhibition at 10 µM
T1 sequence (P15207 whole entry): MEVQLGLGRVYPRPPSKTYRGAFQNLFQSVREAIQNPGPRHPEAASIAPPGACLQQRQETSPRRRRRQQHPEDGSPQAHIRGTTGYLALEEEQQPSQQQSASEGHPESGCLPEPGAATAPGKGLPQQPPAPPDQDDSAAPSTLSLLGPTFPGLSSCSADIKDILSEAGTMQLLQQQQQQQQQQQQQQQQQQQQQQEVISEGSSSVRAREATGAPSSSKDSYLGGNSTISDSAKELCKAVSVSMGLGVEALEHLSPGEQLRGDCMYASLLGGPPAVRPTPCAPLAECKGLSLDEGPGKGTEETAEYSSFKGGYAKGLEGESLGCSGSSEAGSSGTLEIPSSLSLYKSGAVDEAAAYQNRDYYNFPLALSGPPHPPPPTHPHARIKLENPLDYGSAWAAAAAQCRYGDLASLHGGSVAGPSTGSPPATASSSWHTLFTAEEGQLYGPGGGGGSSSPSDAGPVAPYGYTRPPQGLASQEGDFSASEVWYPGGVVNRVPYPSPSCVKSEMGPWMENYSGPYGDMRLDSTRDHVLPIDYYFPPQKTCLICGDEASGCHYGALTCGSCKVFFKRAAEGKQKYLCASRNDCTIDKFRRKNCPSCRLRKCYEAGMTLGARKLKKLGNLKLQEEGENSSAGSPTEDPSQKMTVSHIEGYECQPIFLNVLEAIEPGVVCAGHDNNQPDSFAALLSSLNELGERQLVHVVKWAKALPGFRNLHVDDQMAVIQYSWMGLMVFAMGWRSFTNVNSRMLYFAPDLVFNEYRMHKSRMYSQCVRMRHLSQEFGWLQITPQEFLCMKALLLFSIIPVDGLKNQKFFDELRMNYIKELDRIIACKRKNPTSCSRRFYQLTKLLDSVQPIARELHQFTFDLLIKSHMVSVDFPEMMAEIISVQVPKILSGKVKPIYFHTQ

[2] = target: T2, Alpha-1B adrenergic receptor (Rattus norvegicus, UniProt P15823); assay: DRUGMATRIX: Alpha-1B adrenergic receptor radioligand binding (ligand: prazosin); type: cell membranes, Wistar, Liver, Membrane; conditions: Not Active = under 50% inhibition at 10 µM
T2 sequence (P15823 whole entry): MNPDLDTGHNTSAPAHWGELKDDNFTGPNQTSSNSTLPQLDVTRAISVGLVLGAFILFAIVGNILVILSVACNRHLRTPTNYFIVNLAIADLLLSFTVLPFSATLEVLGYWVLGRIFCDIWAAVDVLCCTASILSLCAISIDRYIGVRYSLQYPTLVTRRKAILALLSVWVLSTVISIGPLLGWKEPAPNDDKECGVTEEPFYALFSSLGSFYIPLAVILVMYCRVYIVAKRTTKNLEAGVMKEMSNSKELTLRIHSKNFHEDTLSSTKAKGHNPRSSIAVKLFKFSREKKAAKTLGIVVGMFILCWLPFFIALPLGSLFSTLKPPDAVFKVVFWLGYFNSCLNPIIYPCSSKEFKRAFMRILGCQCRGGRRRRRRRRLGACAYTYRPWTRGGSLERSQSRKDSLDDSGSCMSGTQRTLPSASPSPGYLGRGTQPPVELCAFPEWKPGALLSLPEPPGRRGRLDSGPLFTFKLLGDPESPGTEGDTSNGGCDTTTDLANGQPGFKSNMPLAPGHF

Progesterone receptor = target: T3, Progesterone receptor (Bos taurus, UniProt Q690N0); assay: DRUGMATRIX: Progesterone radioligand binding (ligand: [3H] R-5020); type: tissue-based, Uterus; conditions: Not Active = under 50% inhibition at 10 µM
T3 sequence (Q690N0 whole entry): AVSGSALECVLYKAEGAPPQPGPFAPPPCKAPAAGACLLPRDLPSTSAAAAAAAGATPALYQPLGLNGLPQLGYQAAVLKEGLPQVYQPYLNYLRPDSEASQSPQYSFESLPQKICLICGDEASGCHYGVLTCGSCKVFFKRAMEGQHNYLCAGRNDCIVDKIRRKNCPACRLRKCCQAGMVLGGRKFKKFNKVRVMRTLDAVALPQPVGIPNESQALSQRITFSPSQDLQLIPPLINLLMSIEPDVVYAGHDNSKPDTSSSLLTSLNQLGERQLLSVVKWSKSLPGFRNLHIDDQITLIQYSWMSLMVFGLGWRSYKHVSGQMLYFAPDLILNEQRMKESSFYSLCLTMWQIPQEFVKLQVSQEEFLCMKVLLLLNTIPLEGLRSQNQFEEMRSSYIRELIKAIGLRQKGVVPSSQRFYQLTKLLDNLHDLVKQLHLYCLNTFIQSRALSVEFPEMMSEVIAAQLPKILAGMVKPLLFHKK

[3] = target: Kappa-type opioid receptor (Homo sapiens, UniProt P41145); assay: DRUGMATRIX: Opiate kappa (OP2, KOP) radioligand binding (ligand: [3H] Diprenorphine); type: cell membranes, HEK293, Membrane; conditions: Not Active = under 50% inhibition at 10 µM
Chain of Kappa-type opioid receptor (P41145 whole entry): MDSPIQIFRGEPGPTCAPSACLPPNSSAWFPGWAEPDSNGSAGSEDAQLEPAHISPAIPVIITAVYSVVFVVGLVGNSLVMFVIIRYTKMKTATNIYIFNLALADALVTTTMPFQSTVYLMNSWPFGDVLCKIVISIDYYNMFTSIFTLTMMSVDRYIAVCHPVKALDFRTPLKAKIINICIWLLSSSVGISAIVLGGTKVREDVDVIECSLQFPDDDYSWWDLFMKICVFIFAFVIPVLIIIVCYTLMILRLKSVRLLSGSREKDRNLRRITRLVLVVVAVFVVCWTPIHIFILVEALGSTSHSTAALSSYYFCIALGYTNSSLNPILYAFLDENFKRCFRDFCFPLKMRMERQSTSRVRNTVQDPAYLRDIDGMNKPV

Cytochrome P450 1A2 = target: T4, Cytochrome P450 1A2 (Homo sapiens, UniProt P05177); note: in other assays of this panel Not Active means under 50% inhibition at 10 µM
T4 sequence (P05177 whole entry): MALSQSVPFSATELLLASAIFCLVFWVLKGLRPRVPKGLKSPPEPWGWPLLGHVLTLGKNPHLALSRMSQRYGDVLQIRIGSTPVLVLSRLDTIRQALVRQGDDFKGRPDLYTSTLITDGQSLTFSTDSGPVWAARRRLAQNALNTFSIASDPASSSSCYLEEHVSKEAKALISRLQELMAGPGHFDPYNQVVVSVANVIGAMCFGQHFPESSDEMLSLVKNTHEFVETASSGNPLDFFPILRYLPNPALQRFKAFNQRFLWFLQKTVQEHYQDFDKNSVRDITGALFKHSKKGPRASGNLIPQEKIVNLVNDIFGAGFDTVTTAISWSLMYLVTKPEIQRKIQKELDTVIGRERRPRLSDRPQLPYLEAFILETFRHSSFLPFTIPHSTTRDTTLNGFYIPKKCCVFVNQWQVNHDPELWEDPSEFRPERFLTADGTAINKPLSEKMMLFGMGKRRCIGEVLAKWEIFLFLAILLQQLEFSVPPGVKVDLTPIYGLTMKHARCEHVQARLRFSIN

Cytochrome P450 2C19 = Cytochrome P450 2C19 (Homo sapiens, UniProt P33261); note: in other assays of this panel Not Active means under 50% inhibition at 10 µM
Chain of Cytochrome P450 2C19 (P33261 whole entry): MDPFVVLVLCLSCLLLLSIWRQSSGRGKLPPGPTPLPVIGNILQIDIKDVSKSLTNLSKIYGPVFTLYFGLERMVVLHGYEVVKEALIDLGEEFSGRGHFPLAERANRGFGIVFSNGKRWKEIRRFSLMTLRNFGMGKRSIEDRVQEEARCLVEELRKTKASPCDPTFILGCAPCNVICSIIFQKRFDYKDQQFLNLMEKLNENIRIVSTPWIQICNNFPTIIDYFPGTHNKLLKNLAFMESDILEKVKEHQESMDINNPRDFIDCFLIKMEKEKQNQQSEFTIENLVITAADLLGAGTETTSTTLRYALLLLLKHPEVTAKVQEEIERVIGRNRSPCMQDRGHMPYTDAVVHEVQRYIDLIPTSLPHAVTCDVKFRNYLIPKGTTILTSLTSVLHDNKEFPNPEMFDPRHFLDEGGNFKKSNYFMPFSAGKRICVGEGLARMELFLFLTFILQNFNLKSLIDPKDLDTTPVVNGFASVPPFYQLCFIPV

Cytochrome P450 2C9 = Cytochrome P450 2C9 (Homo sapiens, UniProt P11712); note: in other assays of this panel Not Active means under 50% inhibition at 10 µM
Chain of Cytochrome P450 2C9 (P11712 whole entry): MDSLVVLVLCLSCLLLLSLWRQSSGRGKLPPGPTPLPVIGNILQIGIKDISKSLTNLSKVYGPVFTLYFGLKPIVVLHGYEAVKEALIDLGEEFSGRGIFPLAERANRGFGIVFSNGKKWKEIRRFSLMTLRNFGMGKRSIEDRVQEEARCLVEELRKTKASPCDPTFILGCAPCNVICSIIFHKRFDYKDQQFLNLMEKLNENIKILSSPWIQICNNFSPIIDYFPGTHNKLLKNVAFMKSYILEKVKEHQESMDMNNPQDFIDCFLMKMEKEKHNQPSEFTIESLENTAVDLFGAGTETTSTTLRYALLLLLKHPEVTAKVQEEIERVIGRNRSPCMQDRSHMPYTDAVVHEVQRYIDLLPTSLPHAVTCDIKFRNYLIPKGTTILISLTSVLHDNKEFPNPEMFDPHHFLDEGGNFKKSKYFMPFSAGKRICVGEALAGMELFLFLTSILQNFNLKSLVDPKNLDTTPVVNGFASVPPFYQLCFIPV

Chain of 5-hydroxytryptamine receptor 2B (P41595 whole entry): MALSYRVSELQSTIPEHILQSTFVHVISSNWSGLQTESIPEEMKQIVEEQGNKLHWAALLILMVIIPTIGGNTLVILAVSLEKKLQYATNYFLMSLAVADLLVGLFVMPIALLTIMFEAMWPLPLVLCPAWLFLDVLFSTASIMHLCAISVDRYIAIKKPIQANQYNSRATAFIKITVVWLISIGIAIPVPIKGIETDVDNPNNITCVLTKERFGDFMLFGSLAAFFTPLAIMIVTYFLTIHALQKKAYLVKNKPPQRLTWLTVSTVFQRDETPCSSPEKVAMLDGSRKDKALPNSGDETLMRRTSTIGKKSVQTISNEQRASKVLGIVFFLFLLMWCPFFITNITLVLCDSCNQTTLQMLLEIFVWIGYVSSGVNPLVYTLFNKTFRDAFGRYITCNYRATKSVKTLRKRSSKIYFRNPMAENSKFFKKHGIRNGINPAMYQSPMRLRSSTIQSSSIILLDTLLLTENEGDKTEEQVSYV

## Oc1ccc(/C=C/c2cc(O)cc(O)c2)cc1 [RESVERATROL]
[1]; cho-k1
  IC50: Not Active
Androgen receptor
  IC50: Not Active
[2]
  IC50: Not Active

## Cc1nnc(NS(=O)(=O)c2ccc(N)cc2)s1 [SULFAMETHIZOLE]
[1]; cho-k1
  IC50: Not Active
Progesterone receptor
  IC50: Not Active
Androgen receptor
  IC50: Not Active
[3]; hek293
  IC50: Not Active
[2]
  IC50: Not Active

## C=CCc1ccc2c(c1)OCO2 [SAFROLE]
[1]; cho-k1
  IC50: Not Active
Progesterone receptor
  IC50: Not Active
Cytochrome P450 1A2
  IC50: 10000 nM
[3]; hek293
  IC50: Not Active
[2]
  IC50: Not Active

## Nc1nc(N)c2nc(-c3ccccc3)c(N)nc2n1
[1]; cho-k1
  IC50: Not Active
Progesterone receptor
  IC50: Not Active
Androgen receptor
  IC50: Not Active
[3]; hek293
  IC50: Not Active
[2]
  IC50: Not Active

## CCN(CC)C(=S)SSC(=S)N(CC)CC
Progesterone receptor
  IC50: Not Active
Cytochrome P450 1A2
  IC50: 4000 nM
Androgen receptor
  IC50: Not Active
[3]
  Ki: 2440 nM
[3]; read-out: IC50
  IC50: 6100 nM
[2]
  IC50: Not Active

## C#C[C@]1(O)CC[C@H]2[C@@H]3[C@H](C)CC4=C(CCC(=O)C4)[C@H]3CC[C@@]21C [TIBOLONE]
[1]; cho-k1
  IC50: Not Active
Cytochrome P450 2C19
  IC50: 3000 nM
Progesterone receptor; read-out: IC50
  IC50: 220 nM
Progesterone receptor; read-out: Ki
  Ki: 28.7 nM
[3]; hek293
  IC50: Not Active
[2]
  IC50: Not Active

## CC[C@H](C)[C@@H](CO[C@@H](Cc1ccccc1)C(=O)N[C@@H](CCS(C)(=O)=O)C(=O)OC(C)C)NC[C@@H](N)CS
[1]; cho-k1
  IC50: Not Active
Progesterone receptor
  IC50: Not Active
Androgen receptor
  IC50: Not Active
[3]; hek293
  IC50: Not Active
[2]
  IC50: Not Active

## CCN1CCCC1CNC(=O)c1cc(S(N)(=O)=O)ccc1OC (stereo not given) [SULPIRIDE]
[1]; cho-k1
  IC50: Not Active
Progesterone receptor
  IC50: Not Active
Androgen receptor
  IC50: Not Active
[3]; hek293
  IC50: Not Active
[2]
  IC50: Not Active

## CC[C@H](C)C(=O)O[C@H]1CCC=C2C=C[C@H](C)[C@H](CC[C@@H]3C[C@@H](O)CC(=O)O3)[C@H]21 [MEVASTATIN]
[1]; cho-k1
  IC50: Not Active
Progesterone receptor
  IC50: Not Active
Androgen receptor
  IC50: Not Active
[3]; hek293
  IC50: Not Active
[2]
  IC50: Not Active

## CN(C)CCC=C1c2ccccc2COc2ccccc21 [DOXEPIN]
Progesterone receptor
  IC50: Not Active
Androgen receptor
  IC50: Not Active
[3]; hek293
  IC50: Not Active

## O=[As][O-].[Na+] [SODIUM ARSENITE]
[1]; cho-k1
  IC50: Not Active
Progesterone receptor
  IC50: Not Active
Androgen receptor
  IC50: Not Active
[2]
  IC50: Not Active

## COC(=O)Nc1nc2ccc(C(=O)c3ccccc3)cc2[nH]1 [MEBENDAZOLE]
[1]; cho-k1
  IC50: Not Active
Progesterone receptor
  IC50: Not Active
Androgen receptor
  IC50: Not Active
[3]; hek293
  IC50: Not Active
[2]
  IC50: Not Active

## CCOC(=O)C1=C(C)NC(C)=C(C(=O)OCC)C1c1ccccc1/C=C/C(=O)OC(C)(C)C [LACIDIPINE]
[1]; cho-k1
  IC50: Not Active
Cytochrome P450 2C19
  IC50: 2000 nM
Progesterone receptor
  IC50: Not Active
[3]; hek293
  IC50: Not Active
Cytochrome P450 2C9
  IC50: 2000 nM
[2]
  IC50: Not Active

## O=C(OC[C@H]1O[C@@H](OC(=O)c2cc(O)c(O)c(OC(=O)c3cc(O)c(O)c(O)c3)c2)[C@H](OC(=O)c2cc(O)c(O)c(OC(=O)c3cc(O)c(O)c(O)c3)c2)[C@@H](OC(=O)c2cc(O)c(O)c(OC(=O)c3cc(O)c(O)c(O)c3)c2)[C@@H]1OC(=O)c1cc(O)c(O)c(OC(=O)c2cc(O)c(O)c(O)c2)c1)c1cc(O)c(O)c(OC(=O)c2cc(O)c(O)c(O)c2)c1 [TANNIC ACID]
[1]; cho-k1
  IC50: Not Active
Progesterone receptor
  IC50: Not Active
Cytochrome P450 1A2
  IC50: 919 nM
[3]; hek293
  IC50: Not Active
Cytochrome P450 2C9
  IC50: 4610 nM
[2]
  IC50: Not Active

## CCOc1cc(N)c(Cl)cc1C(=O)NCC1CN(Cc2ccc(F)cc2)CCO1 (stereo not given) [MOSAPRIDE]
[1]; read-out: IC50
  IC50: 296 nM
[1]; read-out: Ki
  Ki: 188 nM
Cytochrome P450 2C19
  IC50: 1000 nM
Progesterone receptor
  IC50: Not Active
Cytochrome P450 1A2
  IC50: 400 nM
[3]; hek293
  IC50: Not Active
Cytochrome P450 2C9
  IC50: 1000 nM
[2]
  IC50: Not Active

## LEAD(IV) ACETATE
[1]; cho-k1
  IC50: Not Active
  Ki: Not Active
Progesterone receptor
  IC50: Not Active
  Ki: Not Active
Androgen receptor
  IC50: Not Active
  Ki: Not Active
[2]
  IC50: Not Active
  Ki: Not Active
